Measured values as given in US9247741B2, “Use of macrocyclic picolinamides as fungicides” (DOW AGROSCIENCES LLC, priority 2013, dated 2016).
Where two headings read alike, the source gives them in different places.

Legend:
[1] = tested on: Puccinia triticina; assay: Wheat brown rust (PUCCRT) disease control on wheat seedlings; format: in vivo; settings: for pest or weed control at 121.5 g/ha: 121.5 g/H (low volume track spray); for pest or weed control at 100 ppm: 100 ppm (high volume)
Protocol: Technical grades of materials were dissolved in acetone, which were then mixed with nine volumes of water containing 110 ppm Triton X-100. The fungicide solutions were applied onto wheat seedlings using an automated booth sprayer to run-off. All sprayed plants were allowed to air dry prior to further handling. All fungicides were evaluated using the aforementioned method for their activity vs. all target diseases. Wheat leaf blotch and brown rust activity were also evaluated using track spray applications, in which case the fungicides were formulated as EC formulations, containing 0.1% Trycol 5941 in the spray solutions. Wheat plants (variety Yuma) were grown from seed in a greenhouse in 50% mineral soil/50% soil-less Metro mix until the first leaf was fully emerged, with 7-10 seedlings per pot. These plants were inoculated with an aqueous spore suspension of Septoria tritici either prior to or after fungicide treatments. After inoculation the plants were kept in 100% relative humidity (one day in a dark dew chamber followed by two to three days in a lighted dew chamber at 20° C.) to permit spores to germinate and infect the leaf. The plants were then transferred to a greenhouse set at 20° C. for disease to develop. When disease symptoms were fully expressed on the l^st leaves of untreated plants, infection levels were assessed on a scale of 0 to 100 percent disease severity. Percent disease control was calculated using the ratio of disease severity on treated plants relative to untreated plants. Evaluation of Fungicidal Activity: Wheat Brown Rust (Puccinia triticina; Synonym: Puccinia recondite f sp. tritici; Bayer code PUCCRT) Wheat plants (variety Yuma) were grown from seed in a greenhouse in 50% mineral soil/50% soil-less Metro mix until the first leaf was fully emerged, with 7-10 seedlings per pot. These plants were inoculated with an aqueous spore suspension of Puccinia triticina either prior to or after fungicide treatments. After inoculation the plants were kept in a dark dew room at 22° C. with 100% relative humidity overnight to permit spores to germinate and infect the leaf. The plants were then transferred to a greenhouse set at 24° C. for disease to develop. Fungicide formulation, application and disease assessment followed the procedures as described in the Example A.

[2] = tested on: Mycosphaerella graminicola; Anamorph: Septoria tritici; assay: Leaf blotch of wheat (SEPTTR) disease control on wheat seedlings; format: in vivo; settings: Zymoseptoria tritici, wheat; for pest or weed control at 121.5 g/ha: 121.5 g/H (low volume track spray); for pest or weed control at 100 ppm: 100 ppm (high volume)
Protocol: Evaluation of Fungicidal Activity: Leaf Blotch of Wheat (Mycosphaerella graminicola; Anamorph: Septoria tritici; Bayer Code […]) Technical grades of materials were dissolved in acetone, which were then mixed with nine volumes of water containing 110 ppm Triton X-100. The fungicide solutions were applied onto wheat seedlings using an automated booth sprayer to run-off. All sprayed plants were allowed to air dry prior to further handling. All fungicides were evaluated using the aforementioned method for their activity vs. all target diseases. Wheat leaf blotch and brown rust activity were also evaluated using track spray applications, in which case the fungicides were formulated as EC formulations, containing 0.1% Trycol 5941 in the spray solutions. Wheat plants (variety Yuma) were grown from seed in a greenhouse in 50% mineral soil/50% soil-less Metro mix until the first leaf was fully emerged, with 7-10 seedlings per pot. These plants were inoculated with an aqueous spore suspension of Septoria tritici either prior to or after fungicide treatments. After inoculation the plants were kept in 100% relative humidity (one day in a dark dew chamber followed by two to three days in a lighted dew chamber at 20° C.) to permit spores to germinate and infect the leaf. The plants were then transferred to a greenhouse set at 20° C. for disease to develop. When disease symptoms were fully expressed on the l^st leaves of untreated plants, infection levels were assessed on a scale of 0 to 100 percent disease severity. Percent disease control was calculated using the ratio of disease severity on treated plants relative to untreated plants.

[3] = 24 h, 1 Day Protectant, read-out: PUCCRT 1DP disease control rating
[4] = 72 h, 3 Day Curative, read-out: PUCCRT 3DC disease control rating
[5] = 24 h, 1 Day Protectant, read-out: SEPTTR 1DP disease control rating
[6] = 72 h, 3 Day Curative, read-out: SEPTTR 3DC disease control rating

Row | SMILES | pest or weed control at 121.5 g/ha [1, 3] | pest or weed control at 121.5 g/ha [1, 4] | pest or weed control at 121.5 g/ha [2, 5] | pest or weed control at 121.5 g/ha [2, 6] | pest or weed control at 100 ppm [1, 3] | pest or weed control at 100 ppm [1, 4] | pest or weed control at 100 ppm [2, 5] | pest or weed control at 100 ppm [2, 6]
1 | CCCC[C@H]1[C@H](C)OC(=O)[C@@H](NC(=O)c2nccc(OC)c2OCOC(C)=O)CCC[C@@H]1OCCCC(F)(F)F [Compound 52] | > 70% | > 70% | > 70% | > 70% | – | – | – | –
2 | COc1ccnc(C(=O)N[C@H]2CCC[C@H](OCC3CC3)[C@@H](Cc3ccccc3)[C@H](C)OC2=O)c1O [Compound 67] | – | – | – | – | > 70% | > 70% | > 70% | > 70%
3 | COc1ccnc(C(=O)N[C@H]2CCC[C@H](OC(=O)C3CC3)[C@@H](Cc3ccc(F)cc3)[C@H](C)OC2=O)c1OCOC(C)=O [Compound 43] | > 70% | > 70% | > 70% | > 70% | – | – | – | –
4 | COc1ccnc(C(=O)N[C@H]2CCC[C@H](OCc3ccccc3)[C@@H](CCC(C)C)[C@H](C)OC2=O)c1O [Compound 58] | – | – | – | – | > 70% | > 70% | < 70% | < 70%
5 | COc1ccnc(C(=O)N[C@H]2CCC[C@H](OCc3ccccc3)[C@@H](CCC(C)C)[C@H](C)OC2=O)c1OCOC(C)=O [Compound 1] | > 70% | > 70% | > 70% | > 70% | – | – | – | –
6 | COc1ccnc(C(=O)N[C@H]2CCC[C@H](OCC(C)C)[C@@H](Cc3ccccc3)[C@H](C)OC2=O)c1OC(C)=O [Compound 72] | > 70% | > 70% | > 70% | > 70% | – | – | – | –
7 | COc1ccnc(C(=O)N[C@H]2CCC[C@H](OCC3CC3)[C@@H](Cc3ccccc3)[C@H](C)OC2=O)c1OC(C)=O [Compound 76] | – | – | – | – | > 70% | > 70% | > 70% | > 70%
8 | CCCC[C@H]1[C@H](C)OC(=O)[C@@H](NC(=O)c2nccc(OC)c2OCOC(C)=O)CCC[C@@H]1OCc1ccccc1 [Compound 15] | > 70% | > 70% | > 70% | > 70% | – | – | – | –
9 | COc1ccnc(C(=O)N[C@H]2CCC[C@H](Oc3ccc(C)cc3)[C@@H](Cc3ccc(F)cc3)[C@H](C)OC2=O)c1O [Compound 38] | – | – | – | – | > 70% | < 70% | > 70% | < 70%
10 | CCCC[C@H]1[C@H](C)OC(=O)[C@@H](NC(=O)c2nccc(OC)c2OCOC(=O)COCC)CCC[C@@H]1OC(=O)C(C)C [Compound 71, (2S,3S,4S,8S)-3-butyl-8-(3-((2-ethoxyacetoxyl)methoxy)-4-methoxypicolinamido)-2-methyl-9-oxooxonan-4-yl isobutyrate] | > 70% | > 70% | > 70% | > 70% | – | – | – | –
11 | CCCC[C@H]1[C@H](C)OC(=O)[C@@H](NC(=O)c2nccc(OC)c2OCOC(C)=O)CCC[C@@H]1OC(=O)C(C)C [Compound 50] | > 70% | > 70% | > 70% | > 70% | – | – | – | –
12 | CCCO[C@H]1CCC[C@H](NC(=O)c2nccc(OC)c2OCOC(C)=O)C(=O)O[C@@H](C)[C@@H]1Cc1ccc(F)cc1 [Compound 7] | > 70% | > 70% | > 70% | > 70% | – | – | – | –
